Measured values reported in publication PMC7206119, “RIP1 inhibition blocks inflammatory diseases but not tumor growth or metastases” (Cell Death and Differentiation, 2019).

Assays:
Experiment in all cases: biochemical
Design in all cases: Thermo Fisher SelectScreen kinase panel: Z'-LYTE and Adapta activity, LanthaScreen binding
Mer = molecular target: T1, Mer (Homo sapiens, UniProt Q12866)
T1 construct: gene MERTK
Method in brief: (§1)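 GNE684 profiled at 10 µM across 221 kinases with Z'-LYTE and Adapta activity and LanthaScreen binding formats. Also screened at 10 µM against 468 kinases in KINOMEscan scanMAX binding assay.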

ACVR2B = ACVR2B (Homo sapiens, UniProt Q13705)
Method in brief: as §1

FGFR1 = FGFR1 (Homo sapiens, UniProt P11362)
Method in brief: as §1

NEK4 = NEK4 (Homo sapiens, UniProt P51957)
Method in brief: as §1

ARK5 = molecular target: T2, ARK5 (Homo sapiens, UniProt O60285)
T2 construct: gene NUAK1
Method in brief: as §1

MYLK3(caMLCK) = molecular target: T3, MYLK3(caMLCK) (Homo sapiens, UniProt Q32MK0)
T3 construct: cardiac MLCK
Method in brief: as §1

MST4 = molecular target: T4, MST4 (Homo sapiens, UniProt Q9P289)
T4 construct: gene STK26
Method in brief: as §1

RIPK2 = RIPK2 (Homo sapiens, UniProt O43353)
Method in brief: as §1

PKC_zeta = molecular target: T5, PKC_zeta (Homo sapiens, UniProt Q05513)
T5 construct: gene PRKCZ
Method in brief: as §1

MAP4K4 = MAP4K4 (Homo sapiens, UniProt O95819)
Method in brief: as §1

IGF1R = IGF1R (Homo sapiens, UniProt P08069)
Method in brief: as §1

BMPR1A = BMPR1A (Homo sapiens, UniProt P36894)
Method in brief: as §1

MEKK2 = molecular target: T6, MEKK2 (Homo sapiens, UniProt Q9Y2U5)
T6 construct: gene MAP3K2
Method in brief: as §1

BTK = BTK (Homo sapiens, UniProt Q06187)
Method in brief: as §1

ITK = ITK (Homo sapiens, UniProt Q08881)
Method in brief: as §1

AKT1 = AKT1 (Homo sapiens, UniProt P31749)
Method in brief: as §1

Tpl2 = molecular target: T7, Tpl2 (Homo sapiens, UniProt P41279)
T7 construct: gene MAP3K8
Method in brief: as §1

WNK2 = WNK2 (Homo sapiens, UniProt Q9Y3S1)
Method in brief: as §1

SGK2 = SGK2 (Homo sapiens, UniProt Q9HBY8)
Method in brief: as §1

eEF-2K = molecular target: T8, eEF-2K (Homo sapiens, UniProt O00418)
T8 construct: gene EEF2K
Method in brief: as §1

ERBB4 = ERBB4 (Homo sapiens, UniProt Q15303)
Method in brief: as §1

p38-beta = molecular target: T9, p38-beta (Homo sapiens, UniProt Q15759)
T9 construct: gene MAPK11
Method in brief: as §1

STK16 = STK16 (Homo sapiens, UniProt O75716)
Method in brief: as §1

Sequence of ITK (Q08881 whole entry): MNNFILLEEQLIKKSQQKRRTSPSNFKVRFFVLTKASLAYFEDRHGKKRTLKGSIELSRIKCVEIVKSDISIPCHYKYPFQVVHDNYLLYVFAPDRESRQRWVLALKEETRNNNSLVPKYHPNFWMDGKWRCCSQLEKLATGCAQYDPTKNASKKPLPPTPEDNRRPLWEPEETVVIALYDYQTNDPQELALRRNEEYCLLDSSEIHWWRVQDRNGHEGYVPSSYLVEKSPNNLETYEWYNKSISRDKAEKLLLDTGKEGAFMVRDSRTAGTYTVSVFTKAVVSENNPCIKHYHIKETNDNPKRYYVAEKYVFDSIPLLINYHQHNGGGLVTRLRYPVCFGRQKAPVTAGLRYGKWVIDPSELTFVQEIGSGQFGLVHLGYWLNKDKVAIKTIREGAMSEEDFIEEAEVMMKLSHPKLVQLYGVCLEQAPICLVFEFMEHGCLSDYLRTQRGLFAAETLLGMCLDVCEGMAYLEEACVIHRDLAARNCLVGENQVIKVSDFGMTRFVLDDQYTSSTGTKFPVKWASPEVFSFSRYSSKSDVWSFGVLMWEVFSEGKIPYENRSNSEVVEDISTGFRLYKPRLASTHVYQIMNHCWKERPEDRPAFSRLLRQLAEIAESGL
Sequence of BTK (Q06187 whole entry): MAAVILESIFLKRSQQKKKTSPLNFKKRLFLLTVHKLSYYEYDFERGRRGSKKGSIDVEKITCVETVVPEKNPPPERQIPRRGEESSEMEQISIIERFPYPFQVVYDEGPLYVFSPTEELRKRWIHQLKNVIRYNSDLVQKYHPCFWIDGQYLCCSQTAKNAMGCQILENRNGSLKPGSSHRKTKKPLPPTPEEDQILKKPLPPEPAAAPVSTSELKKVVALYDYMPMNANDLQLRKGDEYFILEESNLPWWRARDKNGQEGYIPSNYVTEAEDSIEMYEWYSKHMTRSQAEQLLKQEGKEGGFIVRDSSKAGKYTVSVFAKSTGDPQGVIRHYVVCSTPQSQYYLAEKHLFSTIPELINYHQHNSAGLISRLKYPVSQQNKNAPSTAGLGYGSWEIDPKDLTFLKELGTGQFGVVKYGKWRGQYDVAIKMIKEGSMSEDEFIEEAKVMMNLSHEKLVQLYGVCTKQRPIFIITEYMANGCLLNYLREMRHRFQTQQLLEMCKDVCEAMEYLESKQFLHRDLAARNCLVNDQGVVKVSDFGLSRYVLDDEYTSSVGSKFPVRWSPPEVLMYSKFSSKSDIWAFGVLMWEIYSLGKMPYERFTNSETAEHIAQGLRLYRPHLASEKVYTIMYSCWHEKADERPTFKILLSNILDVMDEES
T2 sequence (O60285 whole entry): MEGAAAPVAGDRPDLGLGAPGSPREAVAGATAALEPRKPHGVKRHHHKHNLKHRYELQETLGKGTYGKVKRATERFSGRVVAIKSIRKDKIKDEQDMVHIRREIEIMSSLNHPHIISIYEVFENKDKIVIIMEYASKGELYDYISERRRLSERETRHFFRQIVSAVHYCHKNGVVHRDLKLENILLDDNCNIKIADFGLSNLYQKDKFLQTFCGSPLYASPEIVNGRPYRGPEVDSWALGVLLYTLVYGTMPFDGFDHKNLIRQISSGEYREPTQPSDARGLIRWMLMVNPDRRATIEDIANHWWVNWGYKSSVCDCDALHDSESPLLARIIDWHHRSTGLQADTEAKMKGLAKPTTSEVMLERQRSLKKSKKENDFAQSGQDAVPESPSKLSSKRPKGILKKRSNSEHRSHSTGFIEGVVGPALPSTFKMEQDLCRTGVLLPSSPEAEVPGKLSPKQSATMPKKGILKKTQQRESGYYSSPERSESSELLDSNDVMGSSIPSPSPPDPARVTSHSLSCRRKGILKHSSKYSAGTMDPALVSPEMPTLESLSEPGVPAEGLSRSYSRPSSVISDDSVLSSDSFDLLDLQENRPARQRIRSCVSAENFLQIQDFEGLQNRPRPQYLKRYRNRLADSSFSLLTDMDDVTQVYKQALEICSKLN
T3 sequence (Q32MK0 whole entry): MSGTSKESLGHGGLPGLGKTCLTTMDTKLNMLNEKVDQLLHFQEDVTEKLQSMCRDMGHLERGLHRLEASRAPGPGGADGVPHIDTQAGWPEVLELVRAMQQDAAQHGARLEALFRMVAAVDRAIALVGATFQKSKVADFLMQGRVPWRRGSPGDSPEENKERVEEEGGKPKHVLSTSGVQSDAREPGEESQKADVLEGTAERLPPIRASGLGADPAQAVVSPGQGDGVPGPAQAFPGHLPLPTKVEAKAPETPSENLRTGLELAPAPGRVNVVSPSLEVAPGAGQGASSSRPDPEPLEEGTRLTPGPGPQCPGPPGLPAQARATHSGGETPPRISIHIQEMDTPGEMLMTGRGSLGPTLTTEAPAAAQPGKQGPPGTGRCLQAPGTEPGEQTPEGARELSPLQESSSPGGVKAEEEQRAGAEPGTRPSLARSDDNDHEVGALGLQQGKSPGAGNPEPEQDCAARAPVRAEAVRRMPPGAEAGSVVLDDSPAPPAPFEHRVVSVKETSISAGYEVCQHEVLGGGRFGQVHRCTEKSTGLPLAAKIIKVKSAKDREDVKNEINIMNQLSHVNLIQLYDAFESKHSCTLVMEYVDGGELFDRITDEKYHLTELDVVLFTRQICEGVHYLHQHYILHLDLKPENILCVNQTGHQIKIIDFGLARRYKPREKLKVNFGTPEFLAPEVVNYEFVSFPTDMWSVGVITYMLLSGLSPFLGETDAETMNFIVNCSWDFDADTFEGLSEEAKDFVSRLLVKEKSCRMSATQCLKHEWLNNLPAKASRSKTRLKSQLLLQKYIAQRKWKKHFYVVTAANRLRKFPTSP
Sequence of IGF1R (P08069 whole entry): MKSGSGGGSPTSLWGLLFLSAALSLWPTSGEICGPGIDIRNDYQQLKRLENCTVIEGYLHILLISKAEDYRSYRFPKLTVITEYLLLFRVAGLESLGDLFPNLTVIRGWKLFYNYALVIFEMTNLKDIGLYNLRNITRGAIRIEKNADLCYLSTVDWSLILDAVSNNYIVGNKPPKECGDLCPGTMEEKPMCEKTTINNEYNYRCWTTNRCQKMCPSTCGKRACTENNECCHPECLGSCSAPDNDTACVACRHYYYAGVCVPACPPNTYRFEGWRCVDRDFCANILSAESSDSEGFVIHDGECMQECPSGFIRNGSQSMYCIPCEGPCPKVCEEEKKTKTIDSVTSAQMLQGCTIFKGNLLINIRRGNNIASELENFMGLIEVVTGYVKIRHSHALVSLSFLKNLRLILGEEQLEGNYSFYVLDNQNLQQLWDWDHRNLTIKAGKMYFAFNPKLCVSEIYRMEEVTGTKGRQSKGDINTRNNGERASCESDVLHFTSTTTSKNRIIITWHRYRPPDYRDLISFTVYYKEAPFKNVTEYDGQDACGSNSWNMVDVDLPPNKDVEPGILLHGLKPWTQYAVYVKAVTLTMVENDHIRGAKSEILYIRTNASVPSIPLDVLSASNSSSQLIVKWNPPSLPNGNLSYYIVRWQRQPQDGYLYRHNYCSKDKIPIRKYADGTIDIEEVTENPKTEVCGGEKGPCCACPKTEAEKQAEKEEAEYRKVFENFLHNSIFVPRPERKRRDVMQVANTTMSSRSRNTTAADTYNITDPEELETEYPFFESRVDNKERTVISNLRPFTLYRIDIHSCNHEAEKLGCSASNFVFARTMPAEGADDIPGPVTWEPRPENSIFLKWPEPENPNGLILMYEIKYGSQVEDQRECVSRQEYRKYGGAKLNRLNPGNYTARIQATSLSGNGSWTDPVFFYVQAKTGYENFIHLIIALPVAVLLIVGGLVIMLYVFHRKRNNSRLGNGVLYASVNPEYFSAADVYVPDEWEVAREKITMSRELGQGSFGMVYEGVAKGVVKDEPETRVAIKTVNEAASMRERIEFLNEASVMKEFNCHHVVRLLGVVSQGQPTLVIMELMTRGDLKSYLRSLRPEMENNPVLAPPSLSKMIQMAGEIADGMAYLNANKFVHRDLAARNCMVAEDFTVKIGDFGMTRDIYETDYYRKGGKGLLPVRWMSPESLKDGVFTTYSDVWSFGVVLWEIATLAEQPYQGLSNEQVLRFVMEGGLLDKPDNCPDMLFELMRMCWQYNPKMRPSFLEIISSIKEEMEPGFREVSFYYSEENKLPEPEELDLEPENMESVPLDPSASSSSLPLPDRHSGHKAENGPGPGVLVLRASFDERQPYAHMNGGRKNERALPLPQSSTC
T9 sequence (Q15759 whole entry): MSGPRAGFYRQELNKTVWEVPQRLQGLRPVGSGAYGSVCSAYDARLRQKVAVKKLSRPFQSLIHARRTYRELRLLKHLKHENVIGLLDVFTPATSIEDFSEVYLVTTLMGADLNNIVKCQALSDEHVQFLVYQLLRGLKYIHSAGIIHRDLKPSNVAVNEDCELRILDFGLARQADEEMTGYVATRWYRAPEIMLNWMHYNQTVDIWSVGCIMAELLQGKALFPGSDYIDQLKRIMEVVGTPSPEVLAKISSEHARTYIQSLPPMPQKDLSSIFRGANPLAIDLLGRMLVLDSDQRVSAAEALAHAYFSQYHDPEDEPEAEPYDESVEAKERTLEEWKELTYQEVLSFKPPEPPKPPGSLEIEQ
Sequence of AKT1 (P31749 whole entry): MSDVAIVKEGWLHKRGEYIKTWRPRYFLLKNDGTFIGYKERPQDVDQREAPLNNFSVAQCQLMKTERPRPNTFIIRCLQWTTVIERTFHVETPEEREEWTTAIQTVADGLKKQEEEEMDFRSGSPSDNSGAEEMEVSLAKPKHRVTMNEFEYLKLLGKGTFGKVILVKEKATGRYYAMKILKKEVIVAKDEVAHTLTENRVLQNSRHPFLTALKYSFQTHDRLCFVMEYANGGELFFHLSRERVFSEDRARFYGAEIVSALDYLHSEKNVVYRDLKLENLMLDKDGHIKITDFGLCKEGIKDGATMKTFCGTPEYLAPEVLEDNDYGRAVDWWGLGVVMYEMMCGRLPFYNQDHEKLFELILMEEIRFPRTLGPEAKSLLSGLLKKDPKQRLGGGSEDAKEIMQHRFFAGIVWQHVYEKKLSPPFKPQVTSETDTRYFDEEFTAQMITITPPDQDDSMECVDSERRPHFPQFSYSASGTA

COc1cc2c(cn1)N(C)C(=O)[C@@H](NC(=O)c1nc3n(n1)[C@H](c1ccccc1)CC3)CC2 [GNE684, (S)-N-((S)-7-methoxy-1-methyl-2-oxo-2,3,4,5-tetrahydro-1H-pyrido[3,4-b]azepin-3-yl)-5-phenyl-6,7-dihydro-5H-pyrrolo[1,2-b][1,2,4]triazole-2-carboxamide]
inhibition at 10 µM (Mer): -5% | inhibition at 10 µM (ACVR2B): 5% | inhibition at 10 µM (FGFR1): -2% | inhibition at 10 µM (NEK4): 4.5% | inhibition at 10 µM (ARK5): -6.5% | inhibition at 10 µM (MYLK3(caMLCK)): -11% | inhibition at 10 µM (MST4): 3.5% | inhibition at 10 µM (RIPK2): 2% | inhibition at 10 µM (PKC_zeta): -2.5% | inhibition at 10 µM (MAP4K4): 11.5% | inhibition at 10 µM (IGF1R): 5% | inhibition at 10 µM (BMPR1A): -4.5% | inhibition at 10 µM (MEKK2): 7% | inhibition at 10 µM (BTK): -3.5% | inhibition at 10 µM (ITK): 5% | inhibition at 10 µM (AKT1): 2.5% | inhibition at 10 µM (Tpl2): 7% | inhibition at 10 µM (WNK2): -8.5% | inhibition at 10 µM (SGK2): 5.5% | inhibition at 10 µM (eEF-2K): 0% | inhibition at 10 µM (ERBB4): 4% | inhibition at 10 µM (p38-beta): 4.5% | inhibition at 10 µM (STK16): -2%
